Laboratory results reported in US20100190849A1, “Novel Clerodanes and Methods for Repelling Arthropods” (priority 2006, published 2010).

Tested on: Aedes aegypti
Experiment: Total mosquito toxic knockdown after K & D module exposure (Experiment 8)
Format: in vivo
Conditions: Exp. 8, 25 nmol/cm^2 cloth; for Total Knock down 6 min: dead mosquitoes 6 min post-treatment exposure; for Total knock down 1 hr: dead mosquitoes 1 hr post-treatment exposure; for Total knock down 24 hr: dead mosquitoes 24 hr post-treatment exposure
Source text: Plant extracts, fractions, or isolated pure plant derived compounds in 95% ethanol solution were each randomly applied to six-4×5 cm areas of organdy cloth and positioned over the membrane-covered blood. A replicate consisted of six treatments: four test chemicals or extract fractions, 95% ethanol treated cloth as control and unfractionated plant extract or a standard repellent compound, (1S, 2′S)-2-methylpiperidinyl-3-cyclohexen-1-carboxamide (SS220) at 25 nmol/cm^2 cloth. The 25 nmol SS220/cm^2 cloth dose was used as a standard, because it was known from human volunteer and in vitro assays to consistently suppress mosquito biting by 80% or more compared to controls in replicated assays (Klun, J. A., et al., Journal of the American Mosquito Control Association, 21: 64-70 (2005)). […] Routinely, a six-celled K & D module containing five mosquitoes/cell was positioned over cloth treatments covering the six blood-membrane wells, and trap doors of the K&D modules were opened to expose the treatments to the sets of mosquitoes. After a 3 minute exposure, the number of mosquitoes biting through cloth treatments in each cell was recorded and mosquitoes were prodded back into the cells. In Experiment 8, we retained all mosquitoes in their respective K&D module cells, each fitted with a water-moist piece of cotton, and observed the mosquitoes for total mosquito toxic knockdown at 6 min, 1 hr, and 24 hr post-treatment exposure. Experiments were replicated 12, 18, 32, or 56 times. Thus, 60, 90, 160. or 280 mosquitoes were tested against each treatment depending on the experiment, and the proportion of mosquitoes not biting for each treatment was calculated. For each experiment, conducted in different time periods, logistic regression was used to make two sets of one degree-of-freedom contrasts (t-tests): treatments vs. control and treatments vs. SS220 for anti-biting activity within each experiment. The level of significance was set at P=0.05. In all, we conducted 8 biological experiments, and all experiments used Ae. aegypti as the test mosquito with exception of Experiment 7 which used An. stephensi.
Experiment 8: This experiment (12 replicates) compared the antibiting activities of a mixture (25 nmol/cm^2 cloth) of 11.5% callicarpenal, 47.1% intermedeol, and 41.4% spathulenol. The percentage composition of the mixture was a normalized percentage of active components in C. japonica essential oil based upon GC-MS analysis total ion Area % analysis based on largest peaks. Other treatments in the experiment were SS220, callicarpenal, intermedeol, and spathulenol each at 25 nmol/cm^2 cloth versus control. In addition to measurement of anti-biting activity, the number of dead mosquitoes observed at three time intervals were recorded for the six treatments.

SMILES: CC1=CCC[C@@H]2[C@@](C)(CC=O)[C@H](C)CC[C@@]12C [callicarpenal, 13,14,15,16-tetranorclerod-3-en-12-al]
- Total Knock down 6 min: 0
- Total knock down 1 hr: 1
- Total knock down 24 hr: 5

SMILES: C=C(C)C1CCC2(C)CCCC(C)(O)C2C1 [intermedeol, (4S,5S,7R,10S)-eudesm-11-en-4-ol]
- Total Knock down 6 min: 1
- Total knock down 1 hr: 1
- Total knock down 24 hr: 2
